We go through seven molecules from patent publication US20230322715A1, “BROAD SPECTRUM ANTI-CANCER COMPOUNDS” (The Regents of the University of California, priority 2019, published 2023).

One data set relates to B16 melanoma tumors. In words: B16 melanoma mouse model, GVAX/anti-PD-1 immunotherapy with ALKBH5 inhibitor. It counts as in vivo. The conditions noted are these: combined with PD-1 Ab and GVAX, vs control. Here is the method:
Animal studies and procedures were approved by the UCSD Institutional Animal Care and use Committee. Female C57BL/6J wild-type mice were obtained from The Jackson Laboratory and housed in the UCSD specific-pathogen free facility. 86.129S2-Tcratm1Mcrn/J (Tcra+) mice, which are CDC and CDB· T cell deficient, were obtained from The Jackson Laboratory and bred on-site. For the standard protocol, mice (aged 9-12 weeks at use) were injected subcutaneously (s.c.) with 5×10^5 B16 cells (NTC control, Fto-KO, or Alkbh5-KO, generated as described below) into the left flank on day 0, and then injected with 1 OE irradiated (100 GY) BIG-GM CSF cells (GVAX) into the opposite flank on days 1 and 4 to elicit an anti-tumor immune response. Mice were then injected intraperitoneally (i p.) with 10 mg/kg (−200 pgimouse) of rat monoclonal anti-mouse RD-I Ab (Bio X Cell, clone 29F. IA 12) on the days as indicated on the figures. For PD-1 Ab treatment alone, mice were implanted with B16 cells and treated with antibody on day 6, 9 and 12. For the Treg depletion experiments, mice were injected as described above and were additionally injected i.p. vittl rat anti-mouse CD25 Ab (Bio X Cell, clone 7D4) on day 11. Tumors were measured every 3 days beginning on day 7. […]

For data set [1], the target named is T1, ALKBH5 (Homo sapiens (Human), UniProt Q6P6C2). The data set can be described thus: Michaelis-Menten kinetics against ALKBH5. It counts as biochemical.
T1 sequence (Q6P6C2 whole entry): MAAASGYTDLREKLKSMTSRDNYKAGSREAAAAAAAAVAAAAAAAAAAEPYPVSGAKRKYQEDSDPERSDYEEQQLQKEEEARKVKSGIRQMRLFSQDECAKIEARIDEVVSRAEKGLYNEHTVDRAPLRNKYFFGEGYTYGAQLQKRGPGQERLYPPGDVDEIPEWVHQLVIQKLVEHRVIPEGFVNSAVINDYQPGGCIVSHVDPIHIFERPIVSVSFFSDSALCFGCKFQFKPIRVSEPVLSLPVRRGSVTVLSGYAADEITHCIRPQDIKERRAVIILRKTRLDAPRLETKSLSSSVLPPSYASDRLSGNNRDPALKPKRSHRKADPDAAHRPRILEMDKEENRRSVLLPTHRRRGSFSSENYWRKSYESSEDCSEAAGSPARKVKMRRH
For data set [2], the target named is T1, ALKBH5. The data set can be described thus: Fluorescence enzymatic inhibition assay (m6A7-Broccoli RNA / DFHBI-1T) against ALKBH5. It counts as biochemical. The conditions noted are these: for IC50: read-out: Enzymatic IC50 ALKBH5. In a few lines:
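Inhibitors were tested at 0.008–40 μM in a final 0.2% DMSO, with 2 h incubation at room temperature. Plates were then held at 4 °C for 16 h so that DFHBI-1T could bind A7-Broccoli RNA, giving a fluorescence read-out. IC50 values come from sigmoidal dose-response fits of triplicates.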

For data set [3], the target named is T2, FTO (Homo sapiens (Human), UniProt Q9C0B1). The data set can be described thus: Fluorescence enzymatic inhibition assay (m6A7-Broccoli RNA / DFHBI-1T) against FTO. The format is biochemical. The conditions noted are these: for IC50: read-out: Enzymatic IC50 FTO; for selectivity between FTO and ALKBH5: comparison of enzymatic IC50 values. In a few lines: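 m6A7-Broccoli RNA demethylated by FTO with 300 μM 2-oxoglutarate, 300 μM Fe(II), 2 mM ascorbate in 50 mM NaHEPES pH 6, 2 h at room temperature; inhibitors 0.008-40 μM, 0.2% DMSO. DFHBI-1T fluorescence after 16 h at 4 °C; sigmoidal dose-response fits, triplicate.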
T2 sequence (Q9C0B1 whole entry): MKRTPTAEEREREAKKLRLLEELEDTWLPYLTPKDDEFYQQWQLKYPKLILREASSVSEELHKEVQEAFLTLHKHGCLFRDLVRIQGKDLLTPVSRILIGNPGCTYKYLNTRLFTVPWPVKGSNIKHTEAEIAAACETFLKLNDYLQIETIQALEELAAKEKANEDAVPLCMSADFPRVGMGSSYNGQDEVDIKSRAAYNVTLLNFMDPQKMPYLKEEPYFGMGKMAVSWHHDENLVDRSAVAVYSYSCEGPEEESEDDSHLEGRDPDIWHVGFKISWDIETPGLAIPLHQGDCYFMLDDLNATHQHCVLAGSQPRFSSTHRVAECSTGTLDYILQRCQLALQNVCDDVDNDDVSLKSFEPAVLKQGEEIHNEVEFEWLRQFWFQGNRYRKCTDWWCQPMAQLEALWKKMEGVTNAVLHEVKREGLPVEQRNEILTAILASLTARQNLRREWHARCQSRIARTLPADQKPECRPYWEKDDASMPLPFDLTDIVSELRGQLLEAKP

The subject of another data set is B16 cells. In words: B16 cell proliferation assay with ALKBH5 inhibitor. The conditions noted are these: 10, 30 and 50 μM ALKBH5 inhibitor vs DMSO. The format is cell-based, mouse. How it is done: B16 cells were plated at a density of 2000/well in 96-well plates in triplicate and incubated for 0, 2, 4, or 6 days before cell numbers were determined by manual counting or by using a CellTiter AQueous One Solution Cell Proliferation Assay kit (Promega).
Our results thus far indicate that loss f-m6A demethylase Alkbh5, in B16 melanoma cells, potentiates the efficacy of GVAX/anti-PD-1 therapy. To identify clinically relevant pharmacological inhibitors of Alkbh5, we have identified a specific inhibitor of ALKBH5, named ALK-04, by in silico screening of compounds using the X-ray crystal structure of ALKBH5 (PDB ID code 4NRO) and by performing structure-activity relationship studies on a library of synthesized compounds. […] Next, we compared tumor growth of control and inhibitor-treated mice during immunotherapy.

Data set [4] is described as follows: elogD / log D determination. The conditions noted are these: Table 700 compounds.
A further data set relates to MONOMAC6 and NB4 cells. The conditions noted are these: Huang et. al; cited from earlier work.
The target of data set [5] is T1, ALKBH5. The conditions noted are these: reported from Huang et. al 2019; read-out: Enzymatic IC50 ALKBH5; cited from earlier work.
Data set [6] concerns GBM-GSC-23 glioblastoma stem cells. In words: Neurosphere (tumorosphere) formation assay, GBM-GSC-23. It counts as cell-based, human. The conditions noted are these: GSC-23, 20 μM, 2 days.
In data set [7] the test system is TS576 glioblastoma stem cells. In words: Neurosphere (tumorosphere) formation assay, TS576. It counts as cell-based, human. The conditions noted are these: 2 days. How it is done:
To understand the effects of our FTO inhibitors on the self-renewal properties of GSCs, tumorospheres cultured from the patient-derived GSC line TS576 were treated with 30 μM of FTO-04, FTO-10, FTO-11, or FTO-12 (FIG. 4-3AB; cell line gifted from the Furnari lab)^0.45, 46 The GSCs were cultured in sphere-forming assays for 24 hours, then treated with either inhibitors or DMSO control for 2 days. The size of the tumorospheres was calculated using ImageJ.
Early passaged GSCs were used to understand the efficacy of ALK-04 on the self-renewal capacity of GSCs by tumorsphere-formation assay as described earlier^10, 11. In brief, GSCs were seeded at 4×10^4 cells in 24 well plate and cultured for 3 days followed by treatment with ALK-04 inhibitors at 20 μM daily for 3 days. After 3 days of treatment the images of the tumorospheres were imaged with phase contrast microscope and size was measured with Image J, to understand the effects of drugs on the self-renewal of GSCs on sphere formation. This process was also repeated for healthy neural stem cells (hNSCs) treated daily with 20 μM ALK-04 for three days to assess the therapeutic ratio.

Data set [8] deals with human neural stem cells (hNSC). In words: Neurosphere formation assay, healthy neural stem cells. It counts as cell-based. The conditions noted are these: 20 μM, 2 days.
The test system of data set [9] is GBM-6 glioblastoma stem cells. In words: Neurosphere (tumorosphere) formation assay, GBM-6. The format is cell-based, human. The conditions noted are these: GBM-6, 20 μM, 2 days.
Data set [10] addresses T2, FTO. The data set can be described thus: ELISA-based FTO inhibition assay (orthogonal control). It counts as biochemical. The conditions noted are these: biotinylated m6A-RNA, 0-40 μM inhibitor; read-out: IC50 against FTO by ELISA assay.
Experimental: The reaction mixture was then incubated with neutravidin coated 96-well plates overnight at 4° C., washed and blocked, incubated with m^6 A-specific antibody for 1 hour at room temperature, washed and blocked, and incubated with horseradish peroxidase-conjugated secondary antibody for 1 hour at room temperature. After extensive washing, the wells were treated with 3,3′,5,5′-tetramethylbenzidine (TMB) for 30 minutes at room temperature and the absorbance was measured at 390 nm. Absorbance was normalized to control wells for each concentration of inhibitor without cofactor 2-oxoglutarate to control for non-specific antibody binding, and the data were fit to a sigmoidal dose-response curve in GraphPad Prism 6.
The reaction mixture was then incubated with neutravidin coated 96-well plates (Pierce) overnight at 4° C., washed and blocked, incubated with m6A -specific primary antibody (Abcam ab151230, 1:400 dilution) for 1 hour at room temperature, washed and blocked (phosphate buffer saline with 0.1% tween-20 (PBST); blocked in 5% of non-fat milk in PBST buffer), and incubated with horseradish peroxidase-conjugated secondary antibody (Sigma-Aldrich, A6154, 1:5000 dilution) for 1 hour at room temperature. […]
In data set [11] the target is T2, FTO. In words: Steady-state (Michaelis-Menten) inhibition kinetics of FTO. It counts as biochemical. The conditions noted are these: velocity and double reciprocal plots, 0-40 μM inhibitor, substrate 0-10 μM.
The subject of data set [12] is m6A mRNA levels in TS576 cells. The data set can be described thus: m6A dot blot assay on poly(A)+ mRNA. It counts as cell-based, human. The conditions noted are these: TS576 poly(A)+ mRNA, 2, 10, 50 ng, vs DMSO or shControl. How it is done:
Next, we sought to determine if FTO-04 was able to alter m6A levels in purified mRNA from GSCs by m6A dot blot assay. TS576 cells were treated with 2, 10, and 50 ng shControl or shFTO to establish the relative change in m6A mRNA levels due to FTO knockdown. […] TS576 cells were then treated with 2, 10, and 50 ng of either DMSO or FTO-04 (FIG. 4-33B).
Polyadenylated mRNA were isolated from TS576 cells treated with either DMSO, FTO-04 (30 μM), and control (shControl) or FTO lentivirus (shFTO) knockdown samples by using Magnetic mRNA Isolation Kit (New England Biolabs, S1550S). Isolated mRNA was quantified, serially diluted and denatured at 95° C. for 3 min, then chilled on ice to prevent reformation of secondary structure of mRNA. Denatured mRNA samples were spotted on an Amersham Hybond-N^+ membrane (GE Healthcare, RPN3050B) and cross-linked to the membrane with UV radiation. After crosslinking the membrane was washed with phosphate buffer saline with 0.1% tween-20 (PBST) and blocked in 5% of non-fat milk in PBST buffer, and then incubated with anti-m^6 A antibody (1:1000; abcam) overnight at 4° C. The membrane was then washed as before and incubated in HRP-conjugated secondary antibodies for 1 h at room temperature. The membrane was then developed with Thermo ECL SuperSignal West Femto Maximum Sensitivity Substrate (Thermo Fisher Scientific).

The mark [13] stands for this setting: TS576, 30 μM inhibitor, vs vehicle control.
Setting [14] is: m6A7-Broccoli fluorescence assay, 0.250 μM ALKBH5.
[15] abbreviates: m6A7-Broccoli fluorescence assay, 0.250 μM FTO, inhibitor up to 40 μM, triplicate.

Entries after “also recorded” stand apart in the source; their conditions may differ. Where two headings read alike, the source gives them in different places. Some results are limits rather than exact numbers.

Consider `CC(C)(C)OC(=O)N1CSC[C@@H]1CN` [ALK-04], for which the “B16 tumor growth during immunotherapy” value with B16 melanoma tumors is listed as “significantly reduced tumor growth”. Besides, the “mechanism of inhibition of ALKBH5” value at ALKBH5 [1] is “competitive inhibitor”. Further, the IC50 was 0.9 ± 0.7 µM on ALKBH5 [2] (Table 700 compounds) and more than 40 µM on FTO [3] (Table 700 compounds). The B16 cell proliferation result in the data set with B16 cells was “not significantly affected”. In data set [4], this molecule registered an elogD of 0.29.
As for `Cc1noc(C)c1-c1cc(Cl)c(Nc2ccccc2C(=O)NO)c(Cl)c1` [FB23-2], in the data set with MONOMAC6 and NB4 cells, the “cellular concentration relative to FB23 (fold)” value was 3-10. For the same molecule, on ALKBH5 [5], the half-maximal inhibitory concentration (IC50) is more than 40 µM.
For the molecule `Cc1noc(C)c1-c1cc(Cl)c(Nc2ccccc2C(=O)O)c(Cl)c1` [FB23], the IC50 on ALKBH5 [5] was more than 40 µM.
With `COc1ncc(-c2ccc3nc(N)sc3c2)cn1` [FTO-04], the size of tumorospheres entry in data set [6] was “significantly decrease the size of tumorospheres”; in data set [7] (TS576, 20 μM) it was “significantly decrease the size of tumorospheres”; in data set [7] (setting [13]) it was “significant reduction in size of the tumorospheres”; in data set [9], “significantly decrease the size of tumorospheres”. Further, the “potency against FTO relative to MA (fold)” value at FTO [3] (IC50 compared with MA (12.5)) was “approximately 4”. In addition, the “neurosphere size / formation” value in data set [8] was “without impairing hNSC neurosphere growth; also recorded: no alteration in neurosphere size; also recorded: without significantly altering hNSC neurosphere formation”. At FTO [10], the half-inhibitory concentration (IC50) is 2.79 ± 1.3 µM. On FTO [11], the “mechanism of inhibition of FTO” value was “competitive inhibitor; also recorded: competitive mechanism of inhibition”. In data set [12], the “m6A mRNA levels (dot blot)” value is given as “increase m6A mRNA levels significantly; also recorded: increases m6A mRNA levels”.
As to `Nc1ncc(-c2ccc3cc(O)ccc3c2)cn1` [FTO-10, 6-(2-aminopyrimidin-5-yl)naphthalen-2-ol], the melting point worked out at 230 °C. For the same molecule, the size of tumorospheres result in data set [7] (setting [13]) is reported as “significant reduction in size of the tumorospheres”. In addition, the 50% inhibitory concentration (IC50) on ALKBH5 [2] (setting [14]) worked out at 36.1 µM. The “selectivity between FTO and ALKBH5” value on FTO [3] is “equivalent inhibitors towards both demethylases”. Moreover, the IC50 on FTO [3] (setting [15]) worked out at 48.1 µM.
Regarding `COc1ncc(-c2ccc3nc(C)ccc3c2)cn1` [FTO-11, 6-(2-methoxypyrimidin-5-yl)-2-methylquinoline], the melting point amounted to 230 °C. In [7] (setting [13]), the size of tumorospheres result is given as “significant reduction in size of the tumorospheres”. Also, the concentration for half-maximal inhibition (IC50) on ALKBH5 [2] (setting [14]) came to 19.5 µM. Moreover, the “selectivity between FTO and ALKBH5” value on FTO [3] is reported as “equivalent inhibitors towards both demethylases”. For the same molecule, the IC50 on FTO [3] (setting [15]) came to 11.3 µM.
Molecule `COc1ccc2cc(-c3cnc(N)nc3)ccc2c1` [FTO-12, 5-(6-methoxynaphthalen-2-yl)pyrimidin-2-amine] came in with a melting point of 230 °C. Also, in data set [7] (setting [13]), the size of tumorospheres entry was “significant reduction in size of the tumorospheres”. In addition, the “inhibition of ALKBH5 at the highest concentration measured” value against ALKBH5 [2] (highest concentration measured) is given as “no measurable inhibition”. For the same molecule, the IC50 at ALKBH5 [2] (setting [14]) is more than 40 µM. Further, on FTO [3], the “selectivity between FTO and ALKBH5” value is listed as “five-fold or higher”. Further, on FTO [3] (setting [15]), the IC50 amounted to 18.3 ± 1.7 µM.

One may read the IC50 as the concentration at which inhibition is half-maximal. One may read the melting point as the temperature, or range, at which the solid turns liquid.
